Experimental findings from patent publication US5470872A, “Benzopyranols” (Beecham Group plc, priority 1988, dated 1995) are described below.

The subject of test [1] is Spontaneously hypertensive rats. The test can be described thus: Blood pressure lowering activity, tail cuff method, spontaneously hypertensive rats. In kind it is in vivo, rat. The procedure:
Blood Pressure Lowering Activity
Systolic blood pressures were recorded by a modification of the tail cuff method described by I. M. Claxton, M. G. Palfreyman, R. H. Poyser, R. L. Whiting, European Journal of Pharmacology, 37,179 (1976). A W+W BP recorder, model 8005 was used to display pulses. Prior to all measurements rats were placed in a heated environment (33.5°±0.5° C.) before transfer to a restraining cage. Each determination of blood pressure was the mean of at least 6 readings. Spontaneously hypertensive rats (ages 12-18 weeks) with systolic blood pressures >180 mmHg were considered hypertensive.

Test [2] concerns guinea pig tracheal spiral preparations. The test can be described thus: Bronchodilation in vitro; guinea pig tracheal spiral preparations. In kind it is cell-based. As to conditions: Cavia porcellus, relaxation of guinea pig tracheal spirals, relative to total relaxation with 10^-3 M isoprenaline; for Emax: read-out: I.A (efficacy, Intrinsic Activity). The method, then: (a) Bronchodilation in vitro; guinea pig tracheal spiral preparations
Male guinea pigs (300-600 g) were stunned by a blow to the head and bled from the carotid artery. The trachea was exposed, dissected free of connective tissue, and transferred to oxygenated krebs solution at 37° C. Next, spirals (2 per trachea) were prepared by cutting the whole trachea spirally along its longitudinal axis and then dividing this spiral lengthwise. Each preparation was mounted, using silk thread, in a 10 ml organ bath filled with krebs solution at 37° C. and bubbled with 5% CO2 with O2. The resting tension of the preparations was set at 2 g and changes in muscle tension were monitored isometrically by means of a UFI (2 oz) force and displacement transducer (Ormed Ltd) connected to a Linseis pen recorder. All preparations were allowed to equilibrate for 60 minutes. During this equilibration period the preparations were washed by upward displacement at 15 minute intervals and, if necessary, the resting tension was readjusted to 2 g using a mechanical micromanipulator system.
Once a steady resting tension had been obtained, the preparations were dosed cumulatively with the test compound (10^-8 -2×10^-5 M), and finally a maximum relaxation achieved by addition of 10^-3 M isoprenaline. The fall in tension evoked by the test compound was expressed as a percentage of the total relaxation evoked in the presence of 10^-3 M isoprenaline. Appropriate concentration-relaxation curves were then constructed and values for potency (IC50) and efficacy (Intrinsic Activity, I.A.) were obtained.
The composition of Krebs solution is: sodium chloride 118.07 mM, sodium hydrogen carbonate 26.19 mM, potassium chloride 4.68 mM, potassium orthophosphate 1.18 mM, magnesium sulphate septahydrate 1.8 mM and calcium chloride 2.52 mM; pH ca. 7.45.

With `CC1(C)Oc2ccc(C(F)(F)C(F)(F)F)cc2[C@@H](N2CCCC2=O)[C@@H]1O` (relative stereo) [Example 1, Trans-3,4-Dihydro-2,2-dimethyl-6-pentafluoroethyl-4-(2-oxopyrrolidin-1-yl)-2H-1-benzopyran-3-ol], in test [1] (0.1 mg/kg p.o.), the “% change in systolic B.P. 1 h” value is recorded as -19 ± 3%, the “% change in systolic B.P. 2 h” value was -30 ± 2% and the “% change in systolic B.P. 4 h” value is reported as -28 ± 2%. Moreover, in test [2], the IC50 was 190 nM and the Emax turned out to be 88%.

Consider `CC1(C)Oc2ccc(C(F)(F)C(F)(F)F)cc2[C@@H](N2CCCCC2=O)[C@@H]1O` (relative stereo) [Example 4, Trans-3,4-dihydro-2,2-dimethyl-4-(2-oxopiperidin-1-yl)-6-pentafluoroethyl-2H-1-benzopyran-3-ol], for which, in test [1] (0.3 mg/kg p.o.), the “% change in systolic B.P. 1 h” value was -36 ± 3%, the “% change in systolic B.P. 2 h” value is on record as -30 ± 1% and the “% change in systolic B.P. 4 h” value is listed as -26 ± 2%. The Emax in test [2] is 90%.

Take `CC1(C)Oc2ccc(C(F)(F)C(F)(F)F)cc2[C@@H](n2ccccc2=O)[C@@H]1O` (relative stereo) [Example 5, Trans-3,4-dihydro-2,2-dimethyl-6-pentafluoroethyl-4-(2(1H)-pyridon-1-yl)-2H-1-benzopyran-3-ol]: in test [2], the IC50 stood at 150 nM and the Emax amounted to 97%.

`CC1(C)C=C(N2CCCC2=O)c2cc(C(F)(F)C(F)(F)F)ccc2O1` [Example 2, 2,2-Dimethyl-6-pentafluoroethyl-4-(2-oxopyrrolidin-1-yl)-2H-1-benzopyran]: in test [1] (1.0 mg/kg p.o.), the “% change in systolic B.P. 1 h” value is reported as -38 ± 2%, the “% change in systolic B.P. 2 h” value was -24 ± 10% and the “% change in systolic B.P. 4 h” value is recorded as -18 ± 6%. Besides, in test [2], the concentration for half-maximal inhibition (IC50) amounted to 98 nM and the Emax came to 96%.

In the case of `CC1(C)Oc2ccc(C(O)C(F)(F)F)cc2[C@@H](N2CCCC2=O)[C@@H]1O` (some centres unmarked) [Example 3], in test [1] (0.3 mg/kg p.o.), the “% change in systolic B.P. 1 h” value is on record as -40 ± 10%, the “% change in systolic B.P. 2 h” value is -29 ± 7% and the “% change in systolic B.P. 4 h” value is -25 ± 7%. For the same compound, in test [2], the IC50 amounted to 370 nM and the Emax was 89%.

Turning to `CC1(C)Oc2ccc(C(F)(F)C(F)(F)F)cc2[C@@H](N2CCCCC2=O)[C@@H]1O` [Example 6, (-)-Trans-3,4-dihydro-2,2-dimethyl-4-(2-oxopiperidin-1-yl)-6-pentafluoroethyl-2H-1-benzopyran-3-ol], in test [2], the Emax worked out at 93%.

For the compound `CC1(C)C=C(N2CCCCC2=O)c2cc(C(F)(F)C(F)(F)F)ccc2O1` [Example 8, 2,2-Dimethyl-6-pentafluoroethyl-4-(2-oxopiperidin-1-yl)-2H-1-benzopyran], in test [2], the IC50 was 190 nM and the Emax turned out to be 88%.

With `CC1(C)C=C(n2ccccc2=O)c2cc(C(F)(F)C(F)(F)F)ccc2O1` [Example 9, 2,2-Dimethyl-6-pentafluoroethyl-4-(2(1H)pyridon-1-yl)-2H-1-benzopyran], in test [2], the IC50 turned out to be 71.5 nM and the Emax was found to be 84%.
